# Results published in patent US20260207649A1, “LSD1 INHIBITOR AND PRMT6 INHIBITOR FOR USE IN THE TREATMENT OF A DISEASE ASSOCIATED WITH GAIN-OF-FUNCTION OF ANDROGEN RECEPTOR (AR) AND/OR WITH OVEREXPRESSION OF AN AR COACTIVATOR” (FONDAZIONE TELETHON ETS(30%), priority 2022, published 2026).
# Test system: PRMT6
# Experiment: Lentiviral shRNA knock-down tested in motor-neuron cell lines
# Assay type: cell-based
# Settings: lentiviral transduction of motor-neuron cell lines
# Description: Transgenes to express shRNA against PRMT6 (shPRMT6 #1, SEQ ID NO: 232 and shPRMT6 #2, SEQ ID NO: 233) and the corresponding scramble were cloned into lentiviral constructs (pLKO.1-puro).
# HEK293T cells were transfected by calcium phosphate with lentiviral vectors together with pCMV-dR8.91 (Delta 8.9) plasmids containing gag, pol, and rev genes and VSV-G envelope plasmid. At 16 hours post-transfection, medium was replaced with fresh medium, and 24 hours later it was collected, centrifuged at 1000×g for 10 minutes (to pellet and thus remove any cellular debris), filtered through 0.45-μm pores, and stored at −80° C. in aliquots. To quantify viruses, 10 μL of viral particles were lysed for 10 minutes at room temperature by adding an equal volume of 2× lysis buffer [0.25% Triton X-100, 50 mM KCl, 100 mM Tris-HCl pH 7.4, 40% glycerol, and 0.8 U/μL RNase inhibitor (RiboLock, Fermentas)]. Lysates were added to a single-step RT-PCR assay with 3.5 nM MS2 RNA (Roche) as template, 500 nM of each primer and hot-start Taq (Truestart Hotstart Taq, Fermentas), all in 20 mM Tris-Cl pH 8.3, 5 mM (NH4)2SO4, 20 mM KCl, 5 mM MgCl2, 0.1 mg/ml BSA, 1/20,000 SYBR Green I (Invitrogen, #S7563), and 200 µM dNTPs. […]
substance,measurement,value
"shPRMT6 #1: shRNA against PRMT6 in lentiviral construct pLKO.1-puro, caccggcauucugagcaucuu (CACCGGCAUUCUGAGCAUCUU)",knock-down efficiency,most efficient knock-down
